These results are taken from article PMC4176318 (ACS Chemical Neuroscience, 2014).

The assay deals with C57Bl/6J mice. As to the kind of experiment: Tail suspension test. The following applies: 10 mg/kg i.p., 30 min prior to testing, 6 min trial; saline 143.7 ± 3.3 s. Type of assay: in vivo, mouse.

Take `CN(C)CCCC1(c2ccc(F)cc2)OCc2cc(C#N)ccc21` (centres unmarked) [citalopram]: the “immobility in TST” value worked out at 29.7 ± 14.5 s.
On to `COCCCC/C(=N\OCCN)c1ccc(C(F)(F)F)cc1` [fluvoxamine], for which the “immobility in TST” value turned out to be 59.0 ± 12.5 s.
